Target: CYP105A1 R84A (Streptomyces griseolus, UniProt P18326, R84A)
Conditions: diclofenac 4′-hydroxylation, Lineweaver-Burk and Dixon plots
Procedure: Ethanol concentration in the final reaction solution was 0.8%. […] After each interval, the reaction was stopped by an addition of 50 μl of acetonitrile into each reaction solution. The solution was centrifuged at 10,000 x g for 15 min, and the resultant supernatant was analyzed by ultra performance liquid chromatography (UPLC) under the following conditions: apparatus, H-Class (Waters Co.); column, ACQUITY UPLC BEH C18 (1.7 μm, 2.1 × 100 mm) (Waters Co.); UV detection, 276 nm; column temperature, 40 °C; flow rate, 0.7 ml/min; injection volume, 10 μl; mobile phase, a linear gradient of 25 to 43% acetonitrile in aqueous solution containing 0.1% trifluoroacetic acid (TFA) for 3 min, followed by 43 to 58% acetonitrile in aqueous solution containing 0.1% TFA for 1 min, followed by 58 to 100% acetonitrile in aqueous solution containing 0.1% TFA for 2 min. […] Two separate experiments were performed to obtain the kobs value for 30 μM diclofenac in 5 μM miconazole. Three separate experiments were performed to obtain all other kobs values. Lineweaver-Burk plot and Dixon plot were prepared from the obtained kobs for each reaction.

CYP105A1 R84A, sequence (P18326 whole entry R84A): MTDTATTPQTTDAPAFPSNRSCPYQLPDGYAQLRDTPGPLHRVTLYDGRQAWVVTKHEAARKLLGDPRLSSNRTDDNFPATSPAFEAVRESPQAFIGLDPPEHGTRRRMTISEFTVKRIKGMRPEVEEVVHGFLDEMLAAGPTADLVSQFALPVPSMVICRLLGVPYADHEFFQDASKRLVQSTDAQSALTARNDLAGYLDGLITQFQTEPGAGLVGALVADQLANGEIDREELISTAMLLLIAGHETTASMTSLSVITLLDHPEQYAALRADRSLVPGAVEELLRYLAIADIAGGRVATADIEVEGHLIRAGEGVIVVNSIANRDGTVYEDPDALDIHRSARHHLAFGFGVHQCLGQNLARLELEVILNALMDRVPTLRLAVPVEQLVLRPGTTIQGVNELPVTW

Compound | Type of inhibition
N#C/C(=C1/SCC(c2ccccc2Cl)S1)n1ccnc1 (centres unmarked) [Lanoconazole] | noncompetitive inhibition
Clc1ccc(COC(Cn2ccnc2)c2ccc(Cl)cc2Cl)c(Cl)c1 (centres unmarked) [Miconazole] | competitive inhibition
